Assays:
Experiment in all cases: Demethylase AlphaScreen Assay
Conditions in all cases: pH 7.5
[1] = biological target: T1, Lysine-specific demethylase 5C [1-765] (Homo sapiens, UniProt P41229)
T1 construct: 1-765
T1 sequence (P41229 whole entry): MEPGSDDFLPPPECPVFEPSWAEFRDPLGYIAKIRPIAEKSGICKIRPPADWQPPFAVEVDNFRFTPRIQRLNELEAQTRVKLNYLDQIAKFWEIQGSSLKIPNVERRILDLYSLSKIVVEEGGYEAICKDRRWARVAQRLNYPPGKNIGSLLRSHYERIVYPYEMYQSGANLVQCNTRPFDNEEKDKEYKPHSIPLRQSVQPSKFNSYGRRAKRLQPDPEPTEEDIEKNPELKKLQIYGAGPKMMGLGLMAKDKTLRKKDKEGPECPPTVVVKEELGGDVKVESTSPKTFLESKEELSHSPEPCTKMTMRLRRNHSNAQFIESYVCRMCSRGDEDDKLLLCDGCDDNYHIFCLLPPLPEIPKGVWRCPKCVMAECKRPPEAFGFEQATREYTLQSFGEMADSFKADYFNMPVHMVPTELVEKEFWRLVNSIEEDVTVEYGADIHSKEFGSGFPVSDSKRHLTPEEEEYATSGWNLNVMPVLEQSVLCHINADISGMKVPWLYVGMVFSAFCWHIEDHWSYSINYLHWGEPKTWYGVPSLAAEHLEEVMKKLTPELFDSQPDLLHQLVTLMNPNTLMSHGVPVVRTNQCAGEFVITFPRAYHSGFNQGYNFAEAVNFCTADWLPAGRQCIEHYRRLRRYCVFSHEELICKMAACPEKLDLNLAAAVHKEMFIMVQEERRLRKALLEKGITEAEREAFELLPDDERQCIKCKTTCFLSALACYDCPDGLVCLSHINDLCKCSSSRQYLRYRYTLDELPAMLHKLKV
Method: (§1) The demethylase AlphaScreen assay was performed in 384-well plate format using white proxiplates (PerkinElmer), and transfer of compound (100 nl) was performed using an ECHO 550 acoustic dispenser (Labcyte). […] All subsequent steps were carried out in assay buffer (50 mM HEPES, pH 7.5, 0.1% (wt/vol) BSA and 0.01% (vol/vol) Tween-20). In brief, 5 μl of assay buffer containing demethylase enzyme at 2× final assay concentration (see Supplementary Table 3c for assay specifics) was preincubated for 15 min with dilutions of compound.

[2] = biological target: Lysine-specific demethylase 5B (Homo sapiens, UniProt Q9UGL1)
Sequence of Lysine-specific demethylase 5B (Q9UGL1 whole entry): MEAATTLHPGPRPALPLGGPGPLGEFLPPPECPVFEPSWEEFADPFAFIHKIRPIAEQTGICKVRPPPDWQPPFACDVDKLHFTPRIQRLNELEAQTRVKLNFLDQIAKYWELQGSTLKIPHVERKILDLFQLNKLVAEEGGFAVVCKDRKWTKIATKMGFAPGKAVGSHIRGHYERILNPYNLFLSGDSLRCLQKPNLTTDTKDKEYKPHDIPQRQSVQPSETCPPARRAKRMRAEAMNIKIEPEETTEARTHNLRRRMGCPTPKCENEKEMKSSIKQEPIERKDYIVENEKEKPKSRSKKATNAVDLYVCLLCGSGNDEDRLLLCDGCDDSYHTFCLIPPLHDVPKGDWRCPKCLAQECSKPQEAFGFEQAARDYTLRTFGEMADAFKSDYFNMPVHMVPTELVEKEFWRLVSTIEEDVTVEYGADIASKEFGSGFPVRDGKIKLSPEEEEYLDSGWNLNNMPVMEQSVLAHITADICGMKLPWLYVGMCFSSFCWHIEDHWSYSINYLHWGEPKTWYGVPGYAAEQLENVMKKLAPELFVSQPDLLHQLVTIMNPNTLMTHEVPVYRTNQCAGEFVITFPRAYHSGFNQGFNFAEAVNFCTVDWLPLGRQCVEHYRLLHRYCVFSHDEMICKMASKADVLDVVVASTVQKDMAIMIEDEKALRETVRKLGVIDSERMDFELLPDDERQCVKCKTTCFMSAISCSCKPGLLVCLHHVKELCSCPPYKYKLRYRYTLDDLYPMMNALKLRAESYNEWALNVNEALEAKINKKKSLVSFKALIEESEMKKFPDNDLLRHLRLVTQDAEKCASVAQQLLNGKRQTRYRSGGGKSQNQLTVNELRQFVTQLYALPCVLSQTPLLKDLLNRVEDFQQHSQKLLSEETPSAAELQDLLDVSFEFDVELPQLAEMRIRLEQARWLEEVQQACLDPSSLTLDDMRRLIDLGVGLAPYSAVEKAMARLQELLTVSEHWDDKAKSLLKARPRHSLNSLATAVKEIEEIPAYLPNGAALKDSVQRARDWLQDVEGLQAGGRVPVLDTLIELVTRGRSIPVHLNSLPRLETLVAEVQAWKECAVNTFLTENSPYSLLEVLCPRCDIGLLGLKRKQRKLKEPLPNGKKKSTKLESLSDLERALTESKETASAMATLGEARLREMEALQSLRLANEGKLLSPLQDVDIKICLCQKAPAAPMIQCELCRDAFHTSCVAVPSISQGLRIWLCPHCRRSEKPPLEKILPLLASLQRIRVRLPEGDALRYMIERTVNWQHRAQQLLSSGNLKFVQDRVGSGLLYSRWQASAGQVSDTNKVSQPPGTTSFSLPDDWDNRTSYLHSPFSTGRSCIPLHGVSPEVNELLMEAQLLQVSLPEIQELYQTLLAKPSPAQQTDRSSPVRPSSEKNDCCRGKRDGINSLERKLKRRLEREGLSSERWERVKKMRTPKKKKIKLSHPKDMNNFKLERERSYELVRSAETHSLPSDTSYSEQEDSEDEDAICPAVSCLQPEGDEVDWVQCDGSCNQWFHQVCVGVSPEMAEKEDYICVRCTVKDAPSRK
Method: as §1

[3] = biological target: T2, Lysine-specific demethylase 5A [1-801] (Homo sapiens, UniProt P29375)
T2 construct: 1-801
T2 sequence (P29375 whole entry): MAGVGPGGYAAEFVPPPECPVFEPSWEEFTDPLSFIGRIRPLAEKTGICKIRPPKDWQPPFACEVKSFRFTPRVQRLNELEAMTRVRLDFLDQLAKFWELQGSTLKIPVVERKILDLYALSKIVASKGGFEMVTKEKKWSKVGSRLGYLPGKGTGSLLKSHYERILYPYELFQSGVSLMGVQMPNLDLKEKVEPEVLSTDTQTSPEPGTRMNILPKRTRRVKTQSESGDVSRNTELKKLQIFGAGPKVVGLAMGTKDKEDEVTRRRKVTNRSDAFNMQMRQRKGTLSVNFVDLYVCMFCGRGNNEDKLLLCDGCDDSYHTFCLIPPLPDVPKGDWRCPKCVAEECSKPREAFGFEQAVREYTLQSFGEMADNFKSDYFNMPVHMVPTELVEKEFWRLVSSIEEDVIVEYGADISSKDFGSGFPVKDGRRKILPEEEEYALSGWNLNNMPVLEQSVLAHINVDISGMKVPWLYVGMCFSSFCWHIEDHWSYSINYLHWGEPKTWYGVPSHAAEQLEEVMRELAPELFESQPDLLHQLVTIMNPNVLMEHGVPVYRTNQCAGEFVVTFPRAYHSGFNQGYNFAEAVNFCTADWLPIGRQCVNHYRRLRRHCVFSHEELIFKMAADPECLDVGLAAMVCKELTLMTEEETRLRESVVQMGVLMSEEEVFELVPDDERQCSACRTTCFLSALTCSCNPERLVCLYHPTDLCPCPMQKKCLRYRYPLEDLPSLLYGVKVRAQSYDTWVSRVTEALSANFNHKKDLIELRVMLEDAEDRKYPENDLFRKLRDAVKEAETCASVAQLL
Method: as §1

[4] = biological target: T3, Lysine-specific demethylase 4C (Homo sapiens, UniProt Q9H3R0)
T3 sequence (Q9H3R0 whole entry): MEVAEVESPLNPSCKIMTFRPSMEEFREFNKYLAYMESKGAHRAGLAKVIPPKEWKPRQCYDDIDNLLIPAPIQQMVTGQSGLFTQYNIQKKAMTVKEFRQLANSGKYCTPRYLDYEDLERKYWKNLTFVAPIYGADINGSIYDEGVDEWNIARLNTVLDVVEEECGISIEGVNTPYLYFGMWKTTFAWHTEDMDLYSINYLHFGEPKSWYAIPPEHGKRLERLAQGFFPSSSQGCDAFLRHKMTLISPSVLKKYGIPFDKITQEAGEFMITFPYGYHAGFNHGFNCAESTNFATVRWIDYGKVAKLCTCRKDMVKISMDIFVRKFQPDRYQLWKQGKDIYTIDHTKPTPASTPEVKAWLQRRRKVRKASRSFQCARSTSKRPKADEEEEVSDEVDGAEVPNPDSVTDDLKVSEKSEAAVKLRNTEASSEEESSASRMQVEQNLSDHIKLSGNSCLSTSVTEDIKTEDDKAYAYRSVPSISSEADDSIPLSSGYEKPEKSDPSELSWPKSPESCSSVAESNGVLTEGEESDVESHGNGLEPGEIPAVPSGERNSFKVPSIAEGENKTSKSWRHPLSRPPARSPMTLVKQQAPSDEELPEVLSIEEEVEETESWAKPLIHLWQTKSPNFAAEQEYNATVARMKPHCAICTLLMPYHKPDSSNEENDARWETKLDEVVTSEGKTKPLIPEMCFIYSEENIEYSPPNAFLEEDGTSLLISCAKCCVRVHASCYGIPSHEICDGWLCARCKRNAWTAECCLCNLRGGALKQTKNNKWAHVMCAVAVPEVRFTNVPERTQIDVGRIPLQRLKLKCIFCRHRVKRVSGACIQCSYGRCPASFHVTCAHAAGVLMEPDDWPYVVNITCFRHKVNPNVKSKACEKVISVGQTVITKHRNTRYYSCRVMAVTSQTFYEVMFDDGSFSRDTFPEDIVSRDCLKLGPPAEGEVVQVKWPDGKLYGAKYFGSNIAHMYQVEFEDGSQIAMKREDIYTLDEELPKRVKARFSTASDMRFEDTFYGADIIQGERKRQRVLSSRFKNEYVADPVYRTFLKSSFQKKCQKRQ
Method: as §1

[5] = biological target: Lysine-specific demethylase 6B (Homo sapiens, UniProt O15054)
Sequence of Lysine-specific demethylase 6B (O15054 whole entry): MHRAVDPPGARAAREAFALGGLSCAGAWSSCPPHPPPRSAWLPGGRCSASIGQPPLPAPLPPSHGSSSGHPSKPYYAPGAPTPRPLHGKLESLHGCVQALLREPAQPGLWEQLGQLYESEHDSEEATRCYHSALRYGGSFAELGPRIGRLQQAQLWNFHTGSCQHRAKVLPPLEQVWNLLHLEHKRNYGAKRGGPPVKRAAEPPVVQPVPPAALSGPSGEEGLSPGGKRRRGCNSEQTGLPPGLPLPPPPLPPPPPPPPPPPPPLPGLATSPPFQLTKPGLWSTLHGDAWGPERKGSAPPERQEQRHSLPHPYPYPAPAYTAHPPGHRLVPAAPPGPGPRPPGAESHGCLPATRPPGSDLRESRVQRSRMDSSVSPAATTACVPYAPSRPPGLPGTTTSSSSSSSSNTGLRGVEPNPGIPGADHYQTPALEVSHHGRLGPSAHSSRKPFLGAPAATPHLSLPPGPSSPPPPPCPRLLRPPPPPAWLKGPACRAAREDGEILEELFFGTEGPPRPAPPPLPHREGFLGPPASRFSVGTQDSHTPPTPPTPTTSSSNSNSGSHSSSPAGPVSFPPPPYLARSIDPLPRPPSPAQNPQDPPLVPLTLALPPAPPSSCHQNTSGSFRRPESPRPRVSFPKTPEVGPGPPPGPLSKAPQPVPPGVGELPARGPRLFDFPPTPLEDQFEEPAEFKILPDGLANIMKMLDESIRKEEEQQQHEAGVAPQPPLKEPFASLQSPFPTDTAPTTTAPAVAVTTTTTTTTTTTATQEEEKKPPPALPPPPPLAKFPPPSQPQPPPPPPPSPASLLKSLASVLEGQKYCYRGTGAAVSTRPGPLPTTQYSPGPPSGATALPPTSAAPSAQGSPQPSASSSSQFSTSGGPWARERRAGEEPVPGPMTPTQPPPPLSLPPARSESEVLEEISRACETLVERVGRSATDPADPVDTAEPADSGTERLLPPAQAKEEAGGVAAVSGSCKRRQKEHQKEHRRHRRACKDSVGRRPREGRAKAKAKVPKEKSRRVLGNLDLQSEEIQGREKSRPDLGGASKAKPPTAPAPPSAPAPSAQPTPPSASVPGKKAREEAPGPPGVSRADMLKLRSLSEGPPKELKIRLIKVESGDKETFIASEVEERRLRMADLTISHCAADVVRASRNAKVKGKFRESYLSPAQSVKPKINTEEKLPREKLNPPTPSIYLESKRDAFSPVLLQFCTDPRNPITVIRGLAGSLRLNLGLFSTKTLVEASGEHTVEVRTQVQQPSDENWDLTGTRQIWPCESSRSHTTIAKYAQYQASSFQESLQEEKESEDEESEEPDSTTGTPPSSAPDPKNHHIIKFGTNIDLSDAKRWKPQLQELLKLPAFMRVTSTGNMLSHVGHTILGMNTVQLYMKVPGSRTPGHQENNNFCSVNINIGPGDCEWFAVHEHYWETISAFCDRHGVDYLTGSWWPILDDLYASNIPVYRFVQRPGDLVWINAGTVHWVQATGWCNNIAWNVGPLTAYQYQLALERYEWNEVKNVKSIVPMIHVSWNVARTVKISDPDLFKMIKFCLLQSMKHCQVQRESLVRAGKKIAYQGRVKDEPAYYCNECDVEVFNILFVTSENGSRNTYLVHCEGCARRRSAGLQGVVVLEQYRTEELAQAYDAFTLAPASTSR
Method: as §1

[6] = biological target: T4, Lysine-specific demethylase 5D [1-775] (Homo sapiens, UniProt Q9BY66)
T4 construct: 1-775
T4 sequence (Q9BY66 1-775): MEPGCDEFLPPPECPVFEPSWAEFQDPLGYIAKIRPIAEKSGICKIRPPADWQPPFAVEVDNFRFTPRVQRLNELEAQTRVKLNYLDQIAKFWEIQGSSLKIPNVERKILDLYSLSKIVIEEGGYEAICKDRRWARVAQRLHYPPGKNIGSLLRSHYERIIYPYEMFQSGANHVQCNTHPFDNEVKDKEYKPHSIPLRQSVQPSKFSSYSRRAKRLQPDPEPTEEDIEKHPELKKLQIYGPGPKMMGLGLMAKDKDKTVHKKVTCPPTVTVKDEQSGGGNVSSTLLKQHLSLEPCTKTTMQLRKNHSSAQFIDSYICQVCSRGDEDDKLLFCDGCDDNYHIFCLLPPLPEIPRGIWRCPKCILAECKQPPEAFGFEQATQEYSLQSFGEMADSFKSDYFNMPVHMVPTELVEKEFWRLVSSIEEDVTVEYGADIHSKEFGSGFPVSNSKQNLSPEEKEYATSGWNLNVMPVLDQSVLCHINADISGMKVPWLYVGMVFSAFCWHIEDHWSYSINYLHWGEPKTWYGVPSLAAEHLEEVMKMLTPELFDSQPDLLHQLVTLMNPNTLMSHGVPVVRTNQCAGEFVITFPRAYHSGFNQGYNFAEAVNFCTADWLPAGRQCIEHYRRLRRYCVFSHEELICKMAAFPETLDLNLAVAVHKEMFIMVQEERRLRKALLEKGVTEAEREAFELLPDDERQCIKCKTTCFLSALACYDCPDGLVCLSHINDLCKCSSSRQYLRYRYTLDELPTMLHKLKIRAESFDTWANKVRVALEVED
Method: as §1

[7] = biological target: T5, Lysine-specific demethylase 2A (Homo sapiens, UniProt Q9Y2K7)
T5 sequence (Q9Y2K7 whole entry): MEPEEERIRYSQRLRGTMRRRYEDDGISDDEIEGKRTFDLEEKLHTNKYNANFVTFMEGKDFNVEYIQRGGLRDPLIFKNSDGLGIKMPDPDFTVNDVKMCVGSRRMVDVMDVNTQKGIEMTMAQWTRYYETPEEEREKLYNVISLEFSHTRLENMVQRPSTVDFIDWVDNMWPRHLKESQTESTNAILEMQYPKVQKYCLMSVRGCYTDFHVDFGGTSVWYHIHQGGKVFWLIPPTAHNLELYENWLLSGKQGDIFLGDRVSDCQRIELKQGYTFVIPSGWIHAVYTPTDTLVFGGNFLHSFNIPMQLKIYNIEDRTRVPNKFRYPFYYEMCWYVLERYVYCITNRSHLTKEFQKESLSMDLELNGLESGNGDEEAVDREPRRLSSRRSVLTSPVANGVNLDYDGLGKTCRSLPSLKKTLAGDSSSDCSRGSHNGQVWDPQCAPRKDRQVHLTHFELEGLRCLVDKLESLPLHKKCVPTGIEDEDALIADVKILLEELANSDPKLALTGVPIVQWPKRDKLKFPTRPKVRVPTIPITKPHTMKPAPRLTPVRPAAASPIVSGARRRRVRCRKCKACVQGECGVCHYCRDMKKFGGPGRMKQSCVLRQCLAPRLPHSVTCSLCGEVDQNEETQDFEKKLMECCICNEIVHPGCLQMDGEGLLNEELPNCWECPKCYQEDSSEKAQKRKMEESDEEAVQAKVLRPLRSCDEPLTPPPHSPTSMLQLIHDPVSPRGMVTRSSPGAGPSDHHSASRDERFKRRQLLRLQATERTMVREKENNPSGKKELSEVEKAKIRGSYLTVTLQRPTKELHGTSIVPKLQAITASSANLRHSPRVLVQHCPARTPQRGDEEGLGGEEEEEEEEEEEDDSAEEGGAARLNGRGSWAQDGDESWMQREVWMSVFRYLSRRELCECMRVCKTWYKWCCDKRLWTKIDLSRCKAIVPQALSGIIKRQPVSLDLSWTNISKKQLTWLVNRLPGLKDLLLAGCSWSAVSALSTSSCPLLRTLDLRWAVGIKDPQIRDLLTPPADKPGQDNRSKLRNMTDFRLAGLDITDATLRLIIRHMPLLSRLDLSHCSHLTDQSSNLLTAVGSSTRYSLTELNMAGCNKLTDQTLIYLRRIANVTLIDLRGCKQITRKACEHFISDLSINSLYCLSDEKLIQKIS
Method: as §1

[8] = biological target: T6, Lysine-specific demethylase 3A (Homo sapiens, UniProt Q9Y4C1)
T6 sequence (Q9Y4C1 whole entry): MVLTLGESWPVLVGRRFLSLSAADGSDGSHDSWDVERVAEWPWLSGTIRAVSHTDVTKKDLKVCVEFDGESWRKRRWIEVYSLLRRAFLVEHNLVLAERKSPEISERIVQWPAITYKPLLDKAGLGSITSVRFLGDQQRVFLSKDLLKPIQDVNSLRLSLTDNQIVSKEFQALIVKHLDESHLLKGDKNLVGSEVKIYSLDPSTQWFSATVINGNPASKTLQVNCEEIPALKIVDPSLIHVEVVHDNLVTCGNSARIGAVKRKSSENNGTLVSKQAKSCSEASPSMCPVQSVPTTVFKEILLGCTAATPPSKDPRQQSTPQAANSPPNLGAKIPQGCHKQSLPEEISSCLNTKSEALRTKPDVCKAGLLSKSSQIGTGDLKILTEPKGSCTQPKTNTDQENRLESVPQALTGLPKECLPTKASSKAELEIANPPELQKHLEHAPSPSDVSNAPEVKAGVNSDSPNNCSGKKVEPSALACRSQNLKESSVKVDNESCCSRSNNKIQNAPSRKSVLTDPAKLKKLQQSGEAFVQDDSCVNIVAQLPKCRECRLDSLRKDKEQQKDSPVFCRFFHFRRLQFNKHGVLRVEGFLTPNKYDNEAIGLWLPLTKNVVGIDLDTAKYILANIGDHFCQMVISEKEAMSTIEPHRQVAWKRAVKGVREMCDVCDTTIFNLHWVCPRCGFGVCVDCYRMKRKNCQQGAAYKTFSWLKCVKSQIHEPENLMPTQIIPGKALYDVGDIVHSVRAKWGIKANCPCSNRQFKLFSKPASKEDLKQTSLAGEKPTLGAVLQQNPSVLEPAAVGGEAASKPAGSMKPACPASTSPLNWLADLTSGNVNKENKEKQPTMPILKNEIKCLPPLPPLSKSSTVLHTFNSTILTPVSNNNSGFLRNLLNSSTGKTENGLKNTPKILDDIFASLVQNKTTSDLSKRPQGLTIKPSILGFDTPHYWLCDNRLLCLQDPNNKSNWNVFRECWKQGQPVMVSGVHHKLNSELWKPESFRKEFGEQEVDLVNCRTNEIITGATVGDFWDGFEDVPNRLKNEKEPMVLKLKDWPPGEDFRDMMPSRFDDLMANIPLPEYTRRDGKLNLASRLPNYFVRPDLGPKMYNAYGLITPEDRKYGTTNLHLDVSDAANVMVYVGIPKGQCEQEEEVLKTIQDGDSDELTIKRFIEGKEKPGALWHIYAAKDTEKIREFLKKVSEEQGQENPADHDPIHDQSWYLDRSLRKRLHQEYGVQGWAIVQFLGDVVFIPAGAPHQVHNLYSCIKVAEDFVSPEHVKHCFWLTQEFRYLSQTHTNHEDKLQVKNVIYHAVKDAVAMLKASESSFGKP
Method: as §1

Row | Compound | IC50 [1] [nM] | IC50 [2] [nM] | IC50 [3] [nM] | IC50 [4] [nM] | IC50 [5] [nM] | IC50 [6] [nM] | IC50 [7] [nM] | IC50 [8] [nM]
1 | O=c1[nH]c(Oc2cnn(Cc3ccccc3)c2)nc2cnccc12 [GSK467] | 65 | 26 | 24 | 5100 | – | 77 | – | 33900
2 | O=C(O)CNC(=O)C(=O)O | – | 24500 | 6900 | 41500 | – | 5800 | – | –

The next lines start with the values.

Row | IC50 [1] [nM] | IC50 [2] [nM] | IC50 [3] [nM] | IC50 [4] [nM] | IC50 [5] [nM] | IC50 [6] [nM] | IC50 [7] [nM] | IC50 [8] [nM] | Compound
3 | 13 | 4 | 7 | 210 | 1400 | 15 | 2200 | 780 | CCN(CCN(C)C)C(=O)CNCc1cc(C(=O)O)ccn1 [KDOAM-20]
4 | 1500 | 550 | 3900 | 64900 | – | 1500 | – | – | O=C(O)CCNc1cc(N2CCc3ccccc3CC2)nc(-c2ccccn2)n1 [GSK-J1]
5 | – | – | 1300 | – | – | 2500 | – | – | O=C(O)c1ccnc(C(=O)O)c1 [pyridine-2,4-dicarboxylic acid]
